Measured values taken from patent US4485239A, “2-(2,6-Dimethyl-3,5-diethoxycarbonyl-1,4-dihydropyridine-4-carboxamide glutaric acid its disodium salt and method of their preparation” (priority 1982, dated 1984).
Structures can show the parent of a compound that is named as a salt. Where two headings read alike, the source gives them in different places.

Assays:
[1] = Solubility in water; type: physicochemical
[2] = test system: experimental models of arrhythmia; assay: Antiarrhythmic activity on experimental models of arrhythmia (calcium, aconitic and strophanthin), overall; type: in vivo, mice, rats, guinea pigs; conditions: for antiarrhythmic activity: in vivo
Description: The action of 2-(2,6-dimethyl-3,5-diethoxycarbonyl-1,4-dihydropyridine-4-carboxamide) glutaric acid and its disodium salt on the cardiovascular system was studied in experiments with mice, rats, guinea pigs and cats. […] Antiarrhythmic agents such as quinidine and novocaine amide (procaine amide) were used for comparisons in the […] study.
(§1) In the experiments on white mice narcotized with urethane ECGs were recorded in the second standard lead. A 2% solution of calcium chloride was injected into the tail vein at a constant rate (00.1 ml during 2 seconds).
(§2) Comparative study of the antiarrhythmic activity of the compounds on an aconitic model of arrhythmia was carried out on albino rats narcotized with urethane and chloralose (intraperitoneally), ECGs were recorded in the second standard lead.
Guinea pigs were narcotized with urethane and chloralose then strophanthin was administered in them, and against the background of arrhythmia, the above compound was administered intravenously. The doses of the compound, that arrest the strophanthin arrhythmia in the guinea pigs were recorded.

[3] = test system: arrythmogenic and lethal effects of calcium chloride; assay: Antagonism towards the arrhythmogenic and lethal effects of calcium chloride in mice (ECG); type: in vivo
Description: as §1

[4] = in vivo; conditions: mouse, in vivo, ip
Excerpt: (§3) Acute toxicity was investigated on mongrel white mice of both sexes (Table 2).

[5] = test system: white mice; assay: in vivo; conditions: intraperitoneal
Excerpt: as §3

[6] = test system: cardiovascular system; assay: Acute experiments in narcotized cats: arterial pressure, respiration, ECG and haemodynamic effects of acetyl choline; type: in vivo
Description: In acute experiments with cats narcotized with chloralose and urethane arterial pressure, respiration and ECG were recorded. The influence of the above comound on the arterial pressure, respiration, and on the haemodynamic effects of acetyl choline were investigated. Anaqueous solution of the compound was administered intravenously.

[7] = test system: Aconitic arrhythmia; assay: Antiarrhythmic activity on aconitic model of arrhythmia in rats; type: in vivo, albino rats; conditions: for ED50: Rattus norvegicus, ip, read-out: ED50, aconitic arrhythmia in rats (average effective antiarrhythmic dose)
Description: as §2

[8] = test system: Strophanthin arrhythmia; assay: Arrest of strophanthin arrhythmia in guinea pigs; type: in vivo; conditions: for ED50: Cavia porcellus, read-out: ED50, strophanthin arrhythmia in guinea pigs
[9] = test system: cardiac arrhythmia; conditions: cited from earlier work; for antiarrhythmic activity / effect on arterial pressure (side-effect): medical practice; for antiarrhythmic activity / effect on arterial pressure (side-effect) / toxicity: prior art
[10] = cats, intravenous, 0.1-0.2 g/kg
[11] = compound dose 3 mg/kg intraperitoneally
[12] = compound dose 6 mg/kg intraperitoneally
[13] = compound dose 10 mg/kg intraperitoneally
[14] = guinea pigs, intravenous, against background of arrhythmia
[15] = strophanthin arrhythmia, guinea pigs
[16] = compound dose 30 mg/kg intraperitoneally

Compound | solubility in water [1] | antiarrhythmic activity [2] | LD50 [4] [mg/kg] | ED50 [7] [mg/kg] | Dose of CaCl2, arrhythmogenic [3, 11] [mg/kg] | Dose of CaCl2, lethal [3, 11] [mg/kg] | Dose of CaCl2, arrhythmogenic [3, 13] [mg/kg] | Dose of CaCl2, lethal [3, 13] [mg/kg] | ED50 [8, 14] [mg/kg] | antiarrhythmic activity [9] | effect on arterial pressure (side-effect) [9] | toxicity [9] | other results
CCOC(=O)C1=C(C)NC(C)=C(C(=O)OCC)C1C(=O)NC(CCC(=O)O)C(=O)O (stereo not shown) [Compound of formula I, 2-(2,6-dimethyl-3,5-diethoxycarbonyl-1,4-dihydropyridine-4-carboxamide) glutaric acid] | hardly soluble in water | pronouncedantiarrhythmic activity |  |  |  |  |  |  |  |  |  |  | antiarrhythmic effect compared with novocaine amide ([3]; novocaine amide dose 30 mg/kg, CaCl2 model, mice): same antiarrhythic effect as novocaine amide in a dose of 30 mg/kg
CCOC(=O)C1=C(C)NC(C)=C(C(=O)OCC)C1C(=O)NC(CCC(=O)O)C(=O)O (stereo not shown) [Compound of formula II, disodium salt of 2-(2,6-dimethyl-3,5-diethoxycarbonyl-1,4-dihydropyridine-4-carboxamide) glutaric acid] | well soluble in water | pronounced antiarrhythmic activity | > 2000 | 3 ± 0.5 | 98.4 | 105.0 | 130.5 | 140.5 | 2.1 ± 0.3 |  |  |  | activity on experimental models of arrhythmia compared with quinidine and novocaine amide ([2]; calcium, aconitic and strophanthin models): higher activity on all kinds of experimental models of arrhythmia; toxicity relative to novocaine amide ([5]; mice): 1/17; toxicity relative to quinidine ([5]; mice): 1/12; change in arterial pressure [6, 10]: does not cause any significant change; change in pulse rate [6, 10]: does not cause any significant change; change in respiration rate [6, 10]: does not cause any significant change; response reaction to acetyl choline ([6]; cats, intravenous, doses of up to 4 mg/kg): does not reduce the response reaction to acetyl choline; drop of the arterial pressure ([6]; intravenous application): does not cause a drastic drop of the arterial pressure; antiarrhythmic activity compared with quinidine and novocaine amide ([7]; aconitic model, rats, intraperitoneal 30-40 minutes before aconitine): higher antiarrhythmic activity than quinidine and novocane amide; Dose of CaCl2, arrhythmogenic [3, 12]: 127.4 mg/kg; Dose of CaCl2, lethal [3, 12]: 134.5 mg/kg; effect on arrhythmogenic and lethal doses of calcium chloride ([3]; preliminary administration 20-30 minutes prior to narcosis, mice): considerably increases; effect on experimental strophanthin arrhythmia ([8]; guinea pig, in vivo): stable effect; activity compared with quinidine [8, 15]: not inferior to quinidine; activity relative to novocaine amide [8, 15]: approximately 25 fold
CCN(CC)CCNC(=O)c1ccc(N)cc1 [Novocaine amide, reference compound] |  |  | 290 | 45 ± 5 |  |  | 116.0 | 120.0 | 55 ± 7.3 | insufficient antiarrthythmic activity | drastically reduce the arterial pressure | toxic | Dose of CaCl2, arrhythmogenic [3, 16]: 127.0 mg/kg; Dose of CaCl2, lethal [3, 16]: 138.0 mg/kg
C=C[C@H]1C[N@@]2CC[C@H]1C[C@@H]2[C@@H](O)c1ccnc2ccc(OC)cc12 [Quinidine, reference compound] |  |  | 156 | 4.3 ± 0.6 | 126.9 | 136.0 | 120.8 | 133.5 |  | insufficient antiarrthythmic activity | drastically reduce the arterial pressure | toxic | effect on strophanthin arrhythmia, in clinic ([9]; clinic): in some cases is ineffective; Acute toxicity, LD50 ([5]; white mice, confidence limit at P = 0.05): 156 mg/kg; ED50 ([8]; iv): 2.3 ± 0.4 mg/kg
